pEC50: −log10 of the molar value.
Target: human GPR40 (Homo sapiens, UniProt O14842)
Assay: Inositol Phosphate Turnover (IP1) Assay 2
Assay type: cell-based
Parameters: expressed in transfected cells
Settings: HEK cells stably expressing human GPR40, Table 2, read-out: Human IP1
Description: Human and mouse GPR40 stable cell-lines were generated in CHO cells stably expressing NFAT BLA (Beta-lactamase). A human GPR40 stable cell-line was generated in HEK cells stably expressing the aequorin expressing reporter. The expression plasmids were transfected using lipofectamine (Life Technologies) following manufacturer's instructions. Stable cell-lines were generated following drug selection.
The assay is performed in 384-well format. HEK cells stably expressing human GPR40 are plated at 15,000 cells per well in growth medium (DMEM/10% fetal calf serum). Cell plates are then incubated 16 hours at 37 degrees in a 5% CO2 incubator.
Measurement of Inositol Phosphate Turnover (IP1) is performed using the CisBio IP-One kit (Part number 62IPAPEB). After the 16 hour incubation, the cells are washed with HEPES buffer and 10 ul of stimulation buffer (prepared as described in the kit) is added to each well. In a separate plate, compounds are diluted in DMSO (400-fold over the final concentration in the assay well) and 25 nl is acoustically transferred to the appropriate well in the assay cell plate. The plates are then incubated for 60 minutes at 37 degrees. 10 ul of detection buffer (also prepared as described in the IP-One kit) is added to each well and the plates are incubated for 60 minutes in the dark. The plates are then read in a Perkin Elmer EnVision or equivalent reader able to measure FRET.

Sequence of human GPR40 (O14842 whole entry): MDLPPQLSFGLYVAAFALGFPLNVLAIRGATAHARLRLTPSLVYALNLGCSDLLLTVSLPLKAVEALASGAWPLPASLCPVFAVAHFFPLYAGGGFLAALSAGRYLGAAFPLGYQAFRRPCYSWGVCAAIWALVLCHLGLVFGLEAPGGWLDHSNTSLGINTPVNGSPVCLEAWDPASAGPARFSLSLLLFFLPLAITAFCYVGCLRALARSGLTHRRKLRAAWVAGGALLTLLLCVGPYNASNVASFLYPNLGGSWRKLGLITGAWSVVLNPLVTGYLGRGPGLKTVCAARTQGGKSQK

Compound	pEC50
O=C(O)C[C@H](c1ccc2c(c1)OC(c1ccc(-c3ccccc3)cc1)CC2)C1CC1 (mixture of isomers) [Example 80]	6.89
COc1cncc(-c2ccc(C3CCc4ccc([C@@H](CC(=O)O)C5CC5)cc4O3)c(F)c2)c1 (mixture of isomers) [Example 86]	6.44
CN1CCOc2cc(-c3ccc(C4CCc5ccc([C@@H](CC(=O)O)C6CC6)cc5O4)c(F)c3)ccc21 (mixture of isomers) [Example 87]	5.86
COc1ccc(F)c(-c2ccc(C3CCc4ccc([C@@H](CC(=O)O)C5CC5)cc4O3)c(F)c2)c1 (mixture of isomers) [Example 88]	8.19
COc1cccc(-c2ccc(C3CCc4ccc([C@@H](CC(=O)O)C5CC5)cc4O3)c(F)c2)c1 (mixture of isomers) [Example 90]	7.97
COc1cc(-c2ccc(C3CCc4ccc([C@@H](CC(=O)O)C5CC5)cc4O3)c(F)c2)c(F)cn1 (mixture of isomers) [Example 91]	8.44
COc1ccc(Cl)c(-c2ccc(C3CCc4ccc([C@@H](CC(=O)O)C5CC5)cc4O3)c(F)c2)c1 (mixture of isomers) [Example 92]	7.72
COc1cncc(-c2ccc(C3CCc4ccc([C@@H](CC(=O)O)C5CC5)cc4O3)c(F)c2)n1 (mixture of isomers) [Example 93]	6.31
COc1cc(-c2ccc(C3CCc4ccc([C@@H](CC(=O)O)C5CC5)cc4O3)c(F)c2)c(F)cc1F (mixture of isomers) [Example 95]	6.66
COc1cc(-c2ccc(C3CCc4ccc([C@@H](CC(=O)O)C5CC5)cc4O3)c(F)c2)ccn1 (mixture of isomers) [Example 96]	7.85
COc1ccc(F)c(-c2ccc(C3CCc4ccc([C@@H](CC(=O)O)C5CC5)cc4O3)cc2OC(F)(F)F)c1 (mixture of isomers) [Example 99]	7.54
COc1ccc(F)c(-c2ccc(C3CCc4ccc([C@H](C5CC5)[C@H](C)C(=O)O)cc4O3)cc2OC(F)(F)F)c1 (mixture of isomers) [Example 100]	7.49
COc1ccc(F)c(-c2ccc(C3CCc4ccc([C@@H](CC(=O)O)C5CC5)cc4O3)cc2[C@H]2CCCC2(C)C)c1 (mixture of isomers) [Example 102]	7.18

Results, then the molecule that gave them:

pEC50	Compound
8.21	COc1ccc(F)c(-c2ccc(C3CCc4ccc([C@@H](CC(=O)O)C5CC5)cc4O3)cc2[C@@H]2CCCC2(C)C)c1 (mixture of isomers) [Example 103]
7.80	COc1ccc(F)c(-c2ccc(C3CCc4ccc([C@@H](CC(=O)O)C5CC5)cc4O3)nc2)c1 (mixture of isomers) [Example 104]
6.88	C[C@H](C(=O)O)[C@H](c1ccc2c(c1)OC(c1ccc(-c3cc(O)ccc3F)cn1)CC2)C1CC1 (mixture of isomers) [Example 107]
8.06	COc1ccc(F)c(-c2ccc(C3CCc4ccc([C@H](C5CC5)[C@H](C)C(=O)O)cc4O3)nc2C2=CCCC2(C)C)c1 (mixture of isomers) [Example 114]
7.77	COc1ccc(F)c(-c2ccc(C3CCc4ccc([C@H](C5CC5)[C@H](C)C(=O)O)cc4O3)c(C(F)(F)F)n2)c1 (mixture of isomers) [Example 116]
7.96	COc1cc(-c2cnc(C3CCc4ccc([C@H](C5CC5)[C@H](C)C(=O)O)cc4O3)c(F)c2)ccn1 (mixture of isomers) [Example 121]
7.85	COc1ccc(F)c(-c2ccc(C3CCc4ccc([C@@H](CC(=O)O)C5CC5)cc4O3)cc2C(OC)C2CC2)c1 (mixture of isomers) [Example 126]
7.38	COc1ccc(F)c(-c2ccc(C3CCc4ccc([C@@H](CC(=O)O)C5CC5)cc4O3)cc2C(OC)C(F)(F)F)c1 (mixture of isomers) [Example 127]
8.49	COc1ccc(F)c(-c2ccc(C3CCc4ccc([C@H](C5CC5)[C@H](C)C(=O)O)cc4O3)cc2C(OC)C(C)(C)C)c1 (mixture of isomers) [Example 128]
